In patent publication US10821177B2, “Induction of differential stress resistance and uses thereof” (University of Southern California, priority 2007, dated 2020):
Like-named read-outs stand apart in the source and are kept apart here.

Legend:
[1] = test system: primary rat mixed glial cells
Procedure: (§3) Primary mixed glial cells were obtained from the cerebral cortex of 1 to 3 day old Sprague Dawley rat pups (Charles River) as described before. Cells cultured for 10-14 days in DMEM/F12 medium with 10% fetal bovine serum (FBS) were used in assays. C6, A10-85, 9L and RG2 rat glioma cell lines and LN229 human glioma cell line and SH-SY5Y human neuroblastoma cell line were maintained in DMEM/F12 medium with 10% FBS at 37° C. under 5% CO2.
(§4) Cells were seeded into 96-well microliter plates at 20,000-30,000 cells/well and incubated for 2 days. Cells were washed with phosphate buffered saline (PBS) prior to treatments as indicated in the text. All treatments were performed at 37° C. under 5% CO2.
Glucose restriction was done by incubating cells in glucose free DMEM (Invitrogen) supplemented with either low glucose (0.5 gL) or normal glucose (1.0 gL) for 24 hours. Serum restriction was done by incubating cells in DMEMIF12 with either 10% or 1% FBS for 24 hours. […]
(§5) Cytotoxicity was measured by either LDH release using the CytoTox 96 Non-Radioactive Cytotoxicity Assay kit (Promega) or the ability to reduce methylthiazolyldiphenyltetrazolium bromide (MTT). % LDH release was determined with reference to the maximum and background LDH release of control cells. […]
Cyclophosphamide (CP, Sigma) was used for in vitro chemotherapy studies. […] Cytotoxicity was measured by either lactate dehydrogenase released using the CytoTox 96 Non-Radioactive Cytotoxicity Assay kit (Promega) or the ability to reduce methylthiazolyldiphenyl-tetrazolium bromide (MTT). LDH released into the medium by lysed cells were measured with a 10-minute enzymatic assay that converts a tetrazolium salt (INT) into a red formazan product. A 96-well based colorimetric assay measured the amount of the red formazan formed, which is proportional to the number of dead cells. % LDH release was determined with reference to the maximum and background LDH release of control cells.

S. cerevisiae = assay type: cell-based; conditions: 48-hour treatment with CP (0.1 M), strains treated separately
Procedure: Overnight cultures were diluted to OD600 0.1 into SDC medium. After 24 hours (day I), the appropriate strains were mixed 1:1 based on OD600 and incubated for 2 hours. […] For treatment SDC, MMS was introduced directly into the mixed culture to a final concentration of 0.01%. However, due to the high concentration of CP (0.1 M) used, CP was dissolved directly into the medium. To do so, mixed cultures were centrifuged for 5 minutes at 2,500 rpm and the media was collected, in which CP was dissolved to a concentration of 0.1 M. The mixed culture was then resuspended in the CP-containing medium. For treatments in water (STS), mixed cultures were centrifuged for 5 minutes at 2,500 rpm and the media was replaced with either distilled/sterile water or drug-dissolved water. Viability was measured by quantifying colony-forming units (CFUs) every 24 hours by plating onto appropriate selective media. Viability of individual strains was measured using the same method as for the mixed cultures.

[2] = test system: primary rat mixed glial cells; assay: Cyclophosphamide cytotoxicity by LDH release (serum restriction, IGF-I, aIR3) in primary glia; assay type: cell-based; conditions: 15 mg/ml CP, 10% serum
Procedure: as §3
Cells were seeded into 96-well microliter plates at 20,000-30,000 cells/well and incubated for 2 days. Cells were washed with phosphate buffered saline (PBS) prior to treatments as indicated in the text. All treatments were performed at 37° C. under 5% CO2. […]
as §5
Cyclophosphamide (CP, Sigma) was used for in vitro chemotherapy studies. […] Cytotoxicity was measured by either lactate dehydrogenase released using the CytoTox 96 Non-Radioactive Cytotoxicity Assay kit (Promega) or the ability to reduce methylthiazolyldiphenyl-tetrazolium bromide (MTT). […]

C6 glioma cells = assay: Cyclophosphamide cytotoxicity by LDH release in C6 glioma cells; assay type: cell-based, rat; conditions: 15 mg/ml CP
Procedure: as §3, §4
Glucose restriction was done by incubating cells in glucose free DMEM (Invitrogen) supplemented with either low glucose (0.5 gL) or normal glucose (1.0 gL) for 24 hours. Serum restriction was done by incubating cells in DMEMIF12 with either 10% or 1% FBS for 24 hours. IGF-I treatment was carried out by incubating cells for 48 hours in DMEM/F12 with 1% FBS and rhIGF-I (100 n g/ml, ProSpec-Tany TechnoGene, Rehovot, Israel), which is shown to be within the IGF-I level range for middle age humans. To antagonize IGF-I receptor activity, cells were incubated with neutralizing monoclonal anti-IGF-IR antibody (aIR3, 1 pg/ml; Calbiochem) in DMEM/F12 1% FBS for 24 hours.
as §5
Cyclophosphamide (CP, Sigma) was used for in vitro chemotherapy studies. […] Cytotoxicity was measured by either lactate dehydrogenase released using the CytoTox 96 Non-Radioactive Cytotoxicity Assay kit (Promega) or the ability to reduce methylthiazolyldiphenyl-tetrazolium bromide (MTT). LDH released into the medium by lysed cells were measured with a 10-minute enzymatic assay that converts a tetrazolium salt (INT) into a red formazan product.

LID mice = conditions: for mortality: 500 mg/kg cyclophosphamide i.p.
Procedure: Thirty-four to forty-two-week old LID and their control L/L-mice were used to evaluate the role of circulating liver-derived IGF-I in stress resistance. LID and L/L-mice were generated using the Cre/loxP system as described before. […] All mice were individually caged throughout the experiment and had access to food and water ad libitum. Both LID and L/L-mice were each injected 500 mg/kg of cyclophosphamide i.p. using 29G insulin syringes. Cyclophosphamide was prepared in saline at 40 mg/ml and warmed prior to injection. Mice were routinely monitored for weight loss and signs of pain and stress. Survival time was the main criterion for determining the effect of low circulating IGF-I on the resistance to high-dose cyclophosphamide. The statistical significance of differential survival between experimental groups was determined by Kaplan-Meier curves and log-rank test using GraphPad Prism 4 software (San Diego, Calif.).

[3] = test system: sch9/aktΔRAS2^val19 cells; assay: Yeast viability (CFU) in mixed cultures, chronic MMS treatment, RAS2val19-expressing cells; assay type: cell-based, S. cerevisiae; conditions: 48-hour treatment, 0.01% MMS
Procedure: (§1) Overnight cultures were diluted to OD600 0.1 into SDC medium. After 24 hours (day I), the appropriate strains were mixed 1:1 based on OD600 and incubated for 2 hours. The mixed cultures were then treated with either cyclophosphamide (CP, 0.1 M) or […] (MMS, 0.01%, Sigma) in medium or water (STS). For treatment SDC, MMS was introduced directly into the mixed culture to a final concentration of 0.01%. However, due to the high concentration of CP (0.1 M) used, CP was dissolved directly into the medium. To do so, mixed cultures were centrifuged for 5 minutes at 2,500 rpm and the media was collected, in which CP was dissolved to a concentration of 0.1 M. The mixed culture was then resuspended in the CP-containing medium. […] Viability was measured by quantifying colony-forming units (CFUs) every 24 hours by plating onto appropriate selective media. Viability of individual strains was measured using the same method as for the mixed cultures.
(§2) Overnight SDC cultures were diluted to OD600 0.1 into fresh SDC medium. […] Viability was measured as colony-forming units (CFUs) every 24 hours by plating onto appropriate selective media. Viability of individual strains was measured using the same method as for the mixed cultures. Relative survival shown was determined by the percentage of the ratio between the treated and untreated (control) cells.

sch9/aktΔ = assay: Yeast viability (CFU) in mixed cultures, chronic MMS treatment, sch9/aktΔ cells; assay type: cell-based, S. cerevisiae; conditions: 48-hour treatment, 0.01% MMS, mixed culture
Procedure: as §1, §2

Compound	glial cells resistant ([1]; 12 mg/ml CP, 0.5 g/L glucose)	cells that survived ([1]; 12 mg/ml CP, 1 g/L glucose)	differential stress resistance of mammalian cells by the starvation-response methods ([1]; normal vs cancer cells)	toxicity to RAS2^val19 and wild type cells (S. cerevisiae)	toxicity to primary glial cells [2]	toxicity to C6 glioma cells in 10% serum versus 1% serum (C6 glioma cells)	average weight loss (LID mice; LID mice, 500 mg/kg cyclophosphamide)	mortality (LID mice; LID mice)	weight loss (LID mice; control mice, 500 mg/kg cyclophosphamide)	mortality (LID mice; control mice)	signs of toxicity in surviving mice (LID mice; surviving LID mice)	sch9/aktΔRAS2^val19 cells that survived ([3]; mixed culture (Example I))	sch9/aktΔRAS2^val19 cells that survived ([3]; mixed culture (Example II))	sch9/aktΔ cells that survived (sch9/aktΔ)
O=P1(N(CCCl)CCCl)NCCCO1 (centres unmarked) [CP, cyclophosphamide]	80%	20%	less than 10 fold	toxic	toxic	as toxic	10%	30%	20%	70%	did not show any signs of toxicity			
COS(C)(=O)=O [MMS, methyl methanesulfonate]												none	less than 5%	great majority
